Laboratory results taken from paper PMC8772772, “Enantioselective Synthesis and Pharmacological Evaluation of Aza-CGP37157–Lipoic Acid Hybrids for the Treatment of Alzheimer’s Disease” (Antioxidants, 2022).
Like-named read-outs stand apart in the source and are kept apart here.

Columns and labels:
NRF2 [1] = conditions: AREc32 cells, 24 h; Table S1; ref [2] of the supplement; cited from earlier work
[2] = tested on: SH-SY5Y neuroblastoma cells; assay: Neuroprotection against okadaic acid hyperphosphorylation in SH-SY5Y cells (MTT); format: cell-based, human; conditions: compound 1 μM 24 h, then compound + OA 24 h; for % Survival: basal = 100, OA alone 54.7; for % Protection: n.p = compound does not protect cells
Method: (§1) Human neuroblastoma SH-SY5Y cells were plated in 96-well clear multi-well plates (6 × 10^4 cells/well). The potential neuroprotective activity of compounds against OS was evaluated using the rotenone (30 μM) (SigmaAldrich, R8875) and oligomycin A (10 μM) (SigmaAldrich, 75351) (R/O) toxic mixture. Neuroprotection activity against Tau hyperphosphorylation was evaluated by using the okadaic acid (20 nM) model. Cells were pre-incubated with each compound (1 µM) for 24 h, and then treatments were removed and cells were incubated with compounds (1 µM) in the presence the corresponding toxic for additional 24 h. At the end of the experiments, viability was determined by the MTT method. Data were normalized from cell death induced by the toxic stimuli (considered as 100% cell death). Then, the protection percentages were calculated by subtracting from the death induced by toxic stimuli, the death in the presence of the compound.
(§2) The tetrazolium ring of MTT can be cleaved by active dehydrogenases to produce a formazan precipitate. At the end of the experiments, MTT (SigmaAldrich, M2003) stock solution was added to each well to achieve a final concentration of 0.5 mg/mL. Cells were incubated for 2 h. Thereafter, culture media was removed, and DMSO was added to each well to dissolve the formazan precipitate. Finally, absorbance was measured in a microplate reader (SPECTROstar nano, BMG Labtech) at 570 nm. Absorbance obtained in basal conditions was considered as 100% cell viability.
Considering these precedents, we envisaged the evaluation of our compounds in a hyperphosphorylation toxicity model induced by okadaic acid (OA), a protein phosphatase 2A inhibitor [58, 59]. This inhibition causes an imbalance between kinase and phosphatase action, leading to hyperphosphorylation of proteins, in particular, Tau. Thus, treatment of SH-SY5Y neuroblastoma cells with OA is a well-stablished model of Tau hyperphosphorylation. Similarly, to the method used for the OS model, we selected a pre-incubation/co-incubation protocol to evaluate the potential neuroprotection capacity related to the NRF2 induction/antioxidant properties of the compounds. Cells were treated with compounds (±)-6, R-6, S-6 or 7a–d (1 µM) during 24 h; thereafter, cells were co-treated with compounds (1 µM) and OA (20 nM) for a further 24 h. Melatonin was also included as a positive control. Finally, cellular viability was evaluated by the MTT method. […] Finally, the (R,S)-7c diastereomer was not able to afford any protection, a result that might be in line with its low NRF2 induction capacity.

[3] = tested on: SH-SY5Y neuroblastoma cells; assay: Neuroprotection against rotenone/oligomycin A oxidative stress in SH-SY5Y cells (MTT); format: cell-based, human; conditions: compound 1 μM 24 h, then compound + R/O (30/10 μM) 24 h; for % Survival: basal = 100, R/O alone 53.4
Method: as §1, §2
Thus, we selected a pre-incubation protocol to evaluate their potential neuroprotective capacity based on the NRF2-induction activity and direct antioxidant effect. Compound pre-incubation would induce the expression of antioxidant enzymes regulated by the phase II antioxidant response, thus promoting cells’ survival. The co-incubation period would also evaluate their capacity to trap free radicals produced by intoxicated mitochondria. SH-SY5Y neuroblastoma cells were treated with compounds (1 µM) during 24 h, and then cells were co-incubated with the corresponding compound at the same concentration and the R/O combination (30/10 µM) for additional 24 h. Melatonin, a well-known antioxidant natural neurohormone, was included as a positive control (1 µM). Previously reported racemic derivatives (rac-3a and (rac,R)-3b) and their precursors ((±)-6, R-6 and S-6) were included for comparative purposes at the same concentration.

BV2 microglial cells = assay: Nitrite production reduction in LPS-stimulated BV2 microglial cells (Griess); format: cell-based, mouse; conditions: Mus musculus, BV-2; 24 h pretreatment 0.3, 3, 10, 30 μM, then compound + LPS 100 ng/mL 18 h, Griess
Method: BV2 microglial cells were seeded at 2 × 10^4 cells/well and treated with compounds at increasing concentrations during 24 h in complete culture media. Then, treatments were removed, and BV2 cells were co-incubated with compounds and LPS (100 ng/mL) (O127:B8, SigmaAldrich, L3129) for additional 18 h in culture media supplemented with 1% FBS. Each plate included non-treated cells as basal nitrite production. Thereafter, nitrite production was determined by using the modified Griess assay. In brief, samples (150 μL) were mixed with DAPSONE (75 μL) (SigmaAldrich, A74807) and NEDA (75 μL) (SigmaAldrich, 33461), and the mixture was incubated at room temperature for 5 min. Light absorption was measured at 550 nm in a microplate reader (SPECTROstar nano, BMG Labtech). Basal nitrite production was referred to as 100% of nitrite production, and all data were normalized to the basal condition. Concentration needed to reduce nitrite production to 50% was calculated from graphical representation of percentage of nitrite production vs. compound concentration, and data were fitted by non-linear regression and interpolated to 50%.
Chronic neuroinflammation is considered a key pathological event in the early stages of AD development. Among immune cells present at CNS, microglia is related to host defense and tissue repair. Nonetheless, chronic neuroinflammation induced by an adverse environment of protein aggregates and exacerbated OS induces a neurotoxic activity of microglia that, finally, leads to neuronal death. […] To this end, we selected the BV2 microglial cell model stimulated by lipopolysaccharide (LPS), a TLR4 agonist that activates the pro-inflammatory response. CGP37157, R- and S-LA; analogue compounds rac-3a and (rac,R)-3b; and precursor derivatives 6 were included with comparative and reference purposes. Microglial BV2 cells were treated with increasing concentrations of the corresponding compound (0.3, 3, 10 and 30 µM) for 24 h following a pre-incubation protocol. Thereafter, treatments were exchanged by a combination of the corresponding compound at desired concentration and LPS (100 ng/mL) during 18 h. At the end of this period, nitrite production was evaluated by the Griess method as an indirect measurement of iNOS enzyme expression and BV2 activation.

NRF2 [4] = assay: NRF2 induction, luciferase expression in AREc32 cell line; format: cell-based; conditions: AREc32 cells, 0.3, 3, 10 and 30 μM (LA: 0.1–0.6 mM), 24 h; mean ± SEM
Method: AREc32 cell line was kindly shared by Professor Roland Wolf (University of Dundee, UK). AREc32 cells were maintained in DMEM/glutamax/high glucose (Gibco, 61965-06, Madrid, Spain), supplemented with 1% penicillin–streptomycin (10,000 units) (SigmaAldrich, P4333, Madrid, Spain), geneticin (0.8 mg/mL) (Gibco, 11811-031) and 10% FBS (Gibco, 10270106), at 37 °C in a 5% CO2 air atmosphere. Cells were used from passage 4 to 18, and mycoplasma contamination was tested every 4 weeks. AREc32 cells were seeded in 96-well white plates (2 × 10^4 cells/well) for 24 h. Thereafter, cells were treated with each compound (0.3, 3, 10 and 30 µM) in duplicate for 24 h. Non-treated cells were included as basal luciferase expression and tert-butylhydroquinone (TBHQ, 10 μM) as positive control in each plate. Luciferase expression was evaluated by using the Luciferase Assay System (Promega, E1483, Madrid, Spain) by luminescence in an Orion II microplate luminometer (Berthold, Germany). Luciferase activity increase was normalized to basal conditions considered as 1. CD values (concentration required to double the luciferase activity) were calculated from dose–response curves of luciferase fold induction vs. compound concentration, fitted by non-linear regression and data interpolated to value 2.
To evaluate the influence of both stereogenic centers in the NRF2 induction capacity of aza-CGP37157-LA hybrids, we used the AREc32 cell line model by analyzing luciferase expression upon treatment with NRF2 inducers. AREc32 cells were exposed to increasing concentrations of tested compounds 7a–d (0.3, […], 10 and 30 μM) during 24 h; thereafter, luciferase expression was evaluated by luminescent assay to calculate the corresponding CD value (concentration to double luciferase expression). […] TBHQ was included as a positive control, and CGP37157, S- and R-LA, rac-3a and (rac,R)-3b and precursors derivatives (R-6 and S-6) were included for comparative purposes. […] Once R-LA is reduced, it might activate the phase II antioxidant response by acting as pro-oxidant over key Cys residues at KEAP1 to generate the corresponding lipoyl-cystinyl disulphide.

[5] = DPPH reduction assay, antioxidant capacity; conditions: for IC50: mean ± SEM of three experiments; for DPPH Scavenging at 100 µM, %: compound 100 µM; for DPPH Scavenging at 100 µM, % / DPPH Scavenging at 1mM, %: DPPH 100 µM, 30 min, mean ± SEM; for DPPH Scavenging at 1mM, %: compound 1 mM
Method: Antioxidant capacity was evaluated by using described procedure slightly modified. Compounds (0.1 and 1 mM, final concentration) were diluted in assay media (EtOH/H2O, 70:30) and mixed with 100 μL of DPPH (SigmaAldrich, D9132, Madrid, Spain) solution (100 μM final concentration) in a clear 96-multiwell plate. Final solution was kept in dark for 30 min, and absorbance of DPPH was measured in a SpectroStar Nano plate-reader (BMG Labtech, Ortenberg, Germany) in duplicate at […]. All experiments included a blank (assay media), control (DPPH 100 μM) and a positive control (ascorbic acid, 100 μM). Data were evaluated as % absorbance (Abs) reduction of control after subtracting blank absorbance. % DPPH reduction = [100 − ((Abssample − Absblank) × 100]/Abscontrol
Initially, we evaluated the free-radical-scavenging capacity of derivatives 7a–d in the DPPH assay, based on the capacity of the tested derivatives to react with the 2,2-diphenyl-1-picrylhydracil radical to generate a non-radical derivate. Hybrid derivatives 7a–d were evaluated at two different concentrations (0.1 and 1 mM), considering the activities of previously reported racemic derivatives. […] Ascorbic acid was used as a positive control, and CGP37157, rac-3a and (rac,R)-3b were included as references. […] Those results are similar to those obtained for racemic mixtures 3a and 3b and a mixture of (S,R)-7b and (R,R)-7d obtained from rac-3 and R-lipoic acid.

[6] = Cytotoxicity in SH-SY5Y cell line (MTT); format: cell-based; conditions: human
Method: SH-SY5Y human neuroblastoma cells were seeded in 96-well clear multi-well plates (6 × 10^4 cells/well). Cells were treated with increasing concentrations of compounds (10, 30 and 100 μM) for 24 h. Thereafter, viability was assessed by the MTT method. Cytotoxic concentration to observe 50% mortality (CC50) values for compounds were interpolated from dose–response curves represented as percentage of cell death vs. concentration of compound, fitted by non-linear regression and data interpolated to value 50.
as §2
In order to evaluate the potential pharmacological profile of new compounds, we first tested the potential neurotoxicity in the neuroblastoma SHSY5Y cell line. Toxicity was evaluated at increasing concentrations (10, 30 and 100 μM), and toxicity was measured as MTT reduction capability. CC50 values were calculated by non-linear regression of curves % survival vs. concentration (Supplementary Materials Figure S2). CGP37157 and previously studied racemic derivatives rac-3a and (rac,R)-3b were included as reference compounds. As previously described, LA is a non-neurotoxic compound at the concentrations texted.

Row | Compound | CD (concentration required to double the specific luciferase activity) (NRF2 [1]) [µM] | % Survival [2] [%] | % Protection [2] [%] | % Survival [3] [%] | IC50 (BV2 microglial cells) [µM] | CD (concentration required to double the specific luciferase activity) (NRF2 [4]) [µM] | IC50 [5] [µM] | DPPH Scavenging at 100 µM, % [5] [%] | DPPH Scavenging at 1mM, % [5] [%] | % Protection [3] [%] | CC50 at 24 h [6] [µM]
1 | O=C1CN(CCO)C(c2ccccc2Cl)c2cc(Cl)ccc2N1 (racemic) [(±)-6, (rac)-7-Chloro-5-(2-chlorophenyl)-4-(2-hydroxyethyl)-4,5-dihydro-1H-benzo[e][1,4]diazepin-2(3H)-one, reference compound] | > 30 | 69.1 ± 6.4 | 33.4 | 74.4 ± 4.1 | – | – | – | – | – | – | –
2 | O=C(O)CCCC[C@H]1CCSS1 [(S)-Lipoic acid, reference compound] | – | – | – | – | > 30 | > 600 | – | – | – | – | –
3 | O=C1O[C@H]([C@@H](O)CO)C(O)=C1O [Ascorbic acid, reference compound] | – | – | – | – | – | – | 16.2 ± 0.7 | – | – | – | –
4 | O=C1CN(CCO)[C@@H](c2ccccc2Cl)c2cc(Cl)ccc2N1 [Compound R-6, (5R)-7-Chloro-5-(2-chlorophenyl)-4-(2-hydroxyethyl)-4,5-dihydro-1H-benzo[e][1,4]diazepin-2(3H)-one] | – | 59.3 ± 10.6 | 14.2 | 75.1 ± 2.9 | – | 11.8 ± 0.5 | – | 10.30 ± 1.10 | 26.7 ± 1.3 | 45.7 | > 100
5 | O=C1CN(CCO)[C@H](c2ccccc2Cl)c2cc(Cl)ccc2N1 [Compound S-6, (5S)-7-Chloro-5-(2-chlorophenyl)-4-(2-hydroxyethyl)-4,5-dihydro-1H-benzo[e][1,4]diazepin-2(3H)-one] | – | 71.5 ± 10.0 | 41.9 | 74.7 ± 2.5 | – | 14.4 ± 0.2 | – | 8.47 ± 2.42 | 25.3 ± 1.5 | 51.5 | > 100
6 | COc1ccc2[nH]cc(CCNC(C)=O)c2c1 [Mel, Melatonin, reference compound] | – | 70.3 ± 4.3 | 31.1 | 68.0 ± 1.5 | – | – | – | – | – | 46.1 | –
7 | Cc1c(C)c2c(c(C)c1O)CCC(C)(C(=O)O)O2 (stereo not drawn) [Trolox, reference compound] | – | – | – | – | – | – | 11.4 ± 1 | 93.4 ± 0.5 | 92.2 ± 0.5 | – | –
